This is an account of results in patent US12595248B2, “PRMT5 inhibitors” (Merck Sharp & Dohme LLC, priority 2019, dated 2026).

One assay has as its target T1, PRMT5 (Homo sapiens, UniProt O14744).
T1 construct: seeded with 4000 MCF-7 cells in 30 μl media; endogenous in cells; host or cells: MCF-7 cells
Briefly: PRMT5 Cell Target Engagement (TE) Assay. It is filed as cell-based. The note with it: MCF-7 cells, treated for 3 days, symmetric dimethylation of arginine (SDMA) by high content imaging. Put shortly: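 Readout is single-cell nuclear symmetric-dimethylarginine immunofluorescence (Alexa488), normalized to DMSO-treated cells. Compounds were applied to MCF-7 cells for 3 days at 37 °C, top concentration 10000 nM in 1:3 steps over ten points; curves fitted with 4-parameter robust fit.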

Assay [1] has as its target T2, PRMT5-MEP50 enzyme complex (Homo sapiens, UniProt O14744).
T2 construct: Full-length (FL)-PRMT5-MEP50 enzyme complex (recombinant proteins from baculovirus-transfected Sf21 cells: FL-PRMT5; MW=73837 kDa and FL-MEP50; MW=38614); made in house; host or cells: baculovirus-transfected Sf21 cells
Nature of the assay: PRMT5-MEP50 Enzyme Methylation Assay (Version A). The class given is biochemical.

The mark [2] stands for this setting: first of two EC50s: 7 parameters biphasic model, read-out: Enzyme Methylation Assay Version A (EC50_1).
[3] abbreviates: second of two EC50s: 7 parameters biphasic model, read-out: Enzyme Methylation Assay Version A (EC50_2).
Setting [4] is: only one EC50 shown: 4 parameters single site sigmoidal model, 60 min pre-incubation with SAM, read-out: Enzyme Methylation Assay Version A (EC50).

Each structure is given as a SMILES string. Read-outs that look alike come from different tables or passages of the source.

T2 sequence (O14744 whole entry): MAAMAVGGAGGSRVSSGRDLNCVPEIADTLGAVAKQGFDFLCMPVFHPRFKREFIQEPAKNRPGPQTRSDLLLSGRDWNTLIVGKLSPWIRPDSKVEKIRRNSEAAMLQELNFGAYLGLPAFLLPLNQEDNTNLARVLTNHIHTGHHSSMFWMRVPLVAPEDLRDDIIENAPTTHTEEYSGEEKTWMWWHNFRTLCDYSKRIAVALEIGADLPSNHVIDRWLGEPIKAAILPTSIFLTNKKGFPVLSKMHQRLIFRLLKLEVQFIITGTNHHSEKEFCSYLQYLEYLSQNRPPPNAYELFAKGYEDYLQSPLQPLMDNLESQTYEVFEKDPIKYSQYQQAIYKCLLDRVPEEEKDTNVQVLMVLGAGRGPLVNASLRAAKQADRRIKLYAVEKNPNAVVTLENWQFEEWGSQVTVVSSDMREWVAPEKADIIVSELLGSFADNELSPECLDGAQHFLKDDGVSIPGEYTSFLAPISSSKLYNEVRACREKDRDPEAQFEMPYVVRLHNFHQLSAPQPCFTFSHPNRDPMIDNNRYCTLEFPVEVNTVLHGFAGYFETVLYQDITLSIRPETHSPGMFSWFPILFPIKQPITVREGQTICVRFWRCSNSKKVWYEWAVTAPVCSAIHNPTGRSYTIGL
T2 sequence (Q9BQA1 whole entry partner): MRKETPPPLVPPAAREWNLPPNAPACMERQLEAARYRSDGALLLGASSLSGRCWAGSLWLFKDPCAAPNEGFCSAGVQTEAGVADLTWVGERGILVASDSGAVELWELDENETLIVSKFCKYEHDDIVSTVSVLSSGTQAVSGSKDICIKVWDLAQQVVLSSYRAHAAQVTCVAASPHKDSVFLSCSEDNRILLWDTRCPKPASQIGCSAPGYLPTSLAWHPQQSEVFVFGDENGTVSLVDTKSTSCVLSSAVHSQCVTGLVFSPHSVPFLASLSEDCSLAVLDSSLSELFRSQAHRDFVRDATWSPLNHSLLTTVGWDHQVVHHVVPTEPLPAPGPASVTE
T1 sequence (O14744 whole entry): as the sequence (O14744 whole entry) above
T1 sequence (Q9BQA1 whole entry partner): as the sequence (Q9BQA1 whole entry partner) above

`CN1CCC(Nc2cc(C(=O)N3CC[C@H](N4CCc5ccccc5C4)[C@@H](O)C3)c(F)cn2)CC1=O` (stereo partly drawn) [Example 112, 4-((4-((3S,4S)-4-(3,4-dihydroisoquinolin-2(1H)-yl)-3-hydroxypiperidine-1-carbonyl)-5-fluoropyridin-2-yl)amino)-1-methylpiperidin-2-one]: the EC50 amounted to 50 nM on PRMT5, 4.5 nM in assay [1] (setting [2]) and 4420 nM in assay [1] (setting [3]).
On the same counts, the results for `O=C(c1cc(NC2CC3CCC(C2)N3)ncc1F)N1CC[C@H](N2CCc3ccccc3C2)[C@@H](O)C1` (stereo partly drawn) [Example 121, (2-((8-azabicyclo[3.2.1]octan-3-yl)amino)-5-fluoropyridin-4-yl)((3S,4S)-4-(3,4-dihydroisoquinolin-2(1H)-yl)-3-hydroxypiperidin-1-yl)methanone] are 1590 nM, 14 nM and 2880 nM.
On to `CC(=O)N1C2CCC1CC(Nc1cc(C(=O)N3CC[C@H](N4CCc5ccccc5C4)[C@@H](O)C3)c(F)cn1)C2` (stereo partly drawn) [Example 122, 1-(3-((4-((3S,4S)-4-(3,4-dihydroisoquinolin-2(1H)-yl)-3-hydroxypiperidine-1-carbonyl)-5-fluoropyridin-2-yl)amino)-8-azabicyclo[3.2.1]octan-8-yl)ethan-1-one], for which the values for the EC50 (on PRMT5; in assay [1] (setting [4])) were 5.9 nM and 3.4 nM, respectively.
In the case of `CC(=O)N1CC[C@@H](CNc2cc(C(=O)N3CC[C@H](N4CCc5ccccc5C4)[C@@H](O)C3)c(F)cn2)C1` [Example 123, 1-((S)-3-(((4-((3S,4S)-4-(3,4-dihydroisoquinolin-2(1H)-yl)-3-hydroxypiperidine-1-carbonyl)-5-fluoropyridin-2-yl)amino)methyl)pyrrolidin-1-yl)ethan-1-one], the EC50 on PRMT5 was 17 nM; in assay [1] (setting [4]), 4.1 nM.
In the case of `CC(=O)N1C[C@H]2CC[C@@H](C1)C2Nc1cc(C(=O)N2CC[C@H](N3CCc4ccccc4C3)[C@@H](O)C2)c(F)cn1` (stereo partly drawn) [Example 124, 1-((1R,5S)-8-((4-((3S,4S)-4-(3,4-dihydroisoquinolin-2(1H)-yl)-3-hydroxypiperidine-1-carbonyl)-5-fluoropyridin-2-yl)amino)-3-azabicyclo[3.2.1]octan-3-yl)ethan-1-one], the EC50 on PRMT5 was found to be 33 nM; in assay [1] (setting [2]), 5.2 nM; in assay [1] (setting [3]) it was 4270 nM.
Regarding `N#CC1(c2ccc3nc(C(=O)N4CC[C@H](N5CCc6ccccc6C5)[C@@H](O)C4)cn3c2)CC1` [Example 125, 1-(2-((3S,4S)-4-(3,4-dihydroisoquinolin-2(1H)-yl)-3-hydroxypiperidine-1-carbonyl)imidazo[1,2-a]pyridin-6-yl)cyclopropane-1-carbonitrile], the EC50 at PRMT5 was 1750 nM; in assay [1] (setting [2]), ~58 nM; in assay [1] (setting [3]), 13700 nM.
`O=C(c1ccc2c(O)c(CC(F)(F)F)cnc2c1)N1CC[C@H](N2CCc3ccccc3C2)[C@@H](O)C1` [Example 126, ((3S,4S)-4-(3,4-dihydroisoquinolin-2(1H)-yl)-3-hydroxypiperidin-1-yl)(4-hydroxy-3-(2,2,2-trifluoroethyl)quinolin-7-yl)methanone]: the EC50 on PRMT5 came out at 69 nM; in assay [1] (setting [2]), 1.1 nM; in assay [1] (setting [3]), 1330 nM.
Take `O=C(c1cn2cc(Cl)ccc2n1)N1CC[C@H](N2CCc3ccccc3C2)[C@@H](O)C1` [Example 132, (6-chloroimidazo[1,2-a]pyridin-2-yl)[(3S,4S)-4-(3,4-dihydroisoquinolin-2(1H)-yl)-3-hydroxypiperidin-1-yl]methanone]: the EC50 was found to be 32 nM at PRMT5 and 3.2 nM in assay [1] (setting [4]).
`O=C(c1nn2cc(Br)cnc2c1Cl)N1CC[C@H](N2CCc3ccccc3C2)[C@@H](O)C1` [Example 133, (6-bromo-3-chloropyrazolo[1,5-a]pyrimidin-2-yl)[(3S,4S)-4-(3,4-dihydroisoquinolin-2(1H)-yl)-3-hydroxypiperidin-1-yl]methanone]: the EC50 came out at 140 nM on PRMT5, 3.2 nM in assay [1] (setting [2]) and 569 nM in assay [1] (setting [3]).
Take `Cc1cc(Br)c2nc(C(=O)N3CC[C@H](N4CCc5ccccc5C4)[C@@H](O)C3)cn2c1` [Example 134, (8-bromo-6-methylimidazo[1,2-a]pyridin-2-yl)[(3S,4S)-4-(3,4-dihydroisoquinolin-2(1H)-yl)-3-hydroxypiperidin-1-yl]methanone]: the EC50 at PRMT5 was determined as 43 nM; in assay [1] (setting [2]), 1.8 nM; in assay [1] (setting [3]) it was 202 nM.
Regarding `Cc1cc(Br)cn2cc(C(=O)N3CC[C@H](N4CCc5ccccc5C4)[C@@H](O)C3)nc12` [Example 135, (6-bromo-8-methylimidazo[1,2-a]pyridin-2-yl)[(3S,4S)-4-(3,4-dihydroisoquinolin-2(1H)-yl)-3-hydroxypiperidin-1-yl]methanone], the EC50 on PRMT5 turned out to be 12 nM; in assay [1] (setting [4]) it was 1.7 nM.
Consider `Cc1cc(Cl)c2nc(C(=O)N3CC[C@H](N4CCc5ccccc5C4)[C@@H](O)C3)cn2c1` [Example 136, (8-chloro-6-methylimidazo[1,2-a]pyridin-2-yl)[(3S,4S)-4-(3,4-dihydroisoquinolin-2(1H)-yl)-3-hydroxypiperidin-1-yl]methanone], for which the EC50 came to 50 nM at PRMT5, 1.2 nM in assay [1] (setting [2]) and 79 nM in assay [1] (setting [3]).
Consider `O=C(c1cn2cc(C(F)(F)F)cc(Cl)c2n1)N1CC[C@H](N2CCc3ccccc3C2)[C@@H](O)C1` [Example 137, [8-chloro-6-(trifluoromethyl)imidazo[1,2-a]pyridin-2-yl][(3S,4S)-4-(3,4-dihydroisoquinolin-2(1H)-yl)-3-hydroxypiperidin-1-yl]methanone], for which the EC50 on PRMT5 came to 9.2 nM; in assay [1] (setting [4]) it was 1.1 nM.
For `O=C(c1cn2cc(Cl)cc(Br)c2n1)N1CC[C@H](N2CCc3ccccc3C2)[C@@H](O)C1` [Example 138, (8-bromo-6-chloroimidazo[1,2-a]pyridin-2-yl)[(3S,4S)-4-(3,4-dihydroisoquinolin-2(1H)-yl)-3-hydroxypiperidin-1-yl]methanone], the EC50 at PRMT5 is 17 nM; in assay [1] (setting [2]) it was 1.1 nM; in assay [1] (setting [3]) it was 39 nM.
On to `O=C(c1cn2cc(Br)cc(I)c2n1)N1CC[C@H](N2CCc3ccccc3C2)[C@@H](O)C1` [Example 139, (6-bromo-8-iodoimidazo[1,2-a]pyridin-2-yl)[(3S,4S)-4-(3,4-dihydroisoquinolin-2(1H)-yl)-3-hydroxypiperidin-1-yl]methanone], for which the results for the EC50 (on PRMT5; in assay [1] (setting [4])) were 7.6 nM and 1.3 nM, respectively.
In the case of `O=C(c1cn2cc(Cl)cc(Cl)c2n1)N1CC[C@H](N2CCc3ccccc3C2)[C@@H](O)C1` [Example 140, (6,8-dichloroimidazo[1,2-a]pyridin-2-yl)[(3S,4S)-4-(3,4-dihydroisoquinolin-2(1H)-yl)-3-hydroxypiperidin-1-yl]methanone], the EC50 at PRMT5 came out at 28 nM; in assay [1] (setting [2]), 0.8 nM; in assay [1] (setting [3]), 65 nM.
Turning to `O=C(c1cn2cc(Br)cc(F)c2n1)N1CC[C@H](N2CCc3ccccc3C2)[C@@H](O)C1` [Example 141, (6-bromo-8-fluoroimidazo[1,2-a]pyridin-2-yl)[(3S,4S)-4-(3,4-dihydroisoquinolin-2(1H)-yl)-3-hydroxypiperidin-1-yl]methanone], the EC50 at PRMT5 was 21 nM; in assay [1] (setting [4]) it was 1.1 nM.
On to `O=C(c1cn2cc(Br)cc(Br)c2n1)N1CC[C@H](N2CCc3ccccc3C2)[C@@H](O)C1` [Example 142, (6,8-dibromoimidazo[1,2-a]pyridin-2-yl)[(3S,4S)-4-(3,4-dihydroisoquinolin-2(1H)-yl)-3-hydroxypiperidin-1-yl]methanone], for which the EC50 on PRMT5 was found to be 8.6 nM; in assay [1] (setting [4]) it was 1.1 nM.
As to `O=C(c1cc2ncc(Br)cn2n1)N1CC[C@H](N2CCc3ccccc3C2)[C@@H](O)C1` [Example 143, (6-bromopyrazolo[1,5-a]pyrimidin-2-yl)[(3S,4S)-4-(3,4-dihydroisoquinolin-2(1H)-yl)-3-hydroxypiperidin-1-yl]methanone], the EC50 at PRMT5 came out at 806 nM; in assay [1] (setting [2]), 2.8 nM; in assay [1] (setting [3]) it was 1820 nM.
